# Laboratory results taken from patent EP0969013B1, “Peptides for inhibiting HPV E7 proteins” (Deutsches Krebsforschungszentrum Stiftung des öffentlichen …, priority 1998, dated 2003).
# Peptide text beside a SMILES is read from it.
# Assays:
# Format in all cases: cell-based
# E7/2 cells [1] = assay: Growth rate of E7/2 cells (cell number); conditions: 10 µM - 200 µM penetratin-fused synthesized peptide, 1 hour to 72 hours
# Protocol: (§1) • (A) Peptide No. 732 is chemically synthesized with a leader attached to the NH2 end and supporting the incorporation into cells. It is penetratin and originates from Drosophila antennapedia. Thus, peptide No. 732 is available as fusion polypeptide and has the following sequence: [formula] Cells are used in which HPV16 E7 is expressed and whose growth depends thereon. Such cells are e.g. E7/2 cells. They are transfected with 10 µM - 200 µM of the synthesized peptide No. 732. Growth rate, apoptosis and cell cycle profiles of the cells are determined 1 hour to 72 hours after the transfection. The former is effected by determining the cell number. As regards the second test, reference is made to Example 2 (A). As to the latter test, the cell DNA is stained with propidium iodide and its content is determined in a FACscan. On the basis thereof, the cell cycle profile is assessed by means of the CellQuest program (Schulze, A. et al., Proc. Natl. Acad. Sci, U.S.A. 92, (1995), 11264-11268), the number of cells in the S phase being taken as a marker for the cell proliferation. […] For this purpose, the BamHI/NdeI fragment (cf. Example 1) of pJM-1 is inserted in the vector pET 19b (Novagen company) so as to obtain the vector pH6-732. Thereafter, cleavage is carried out by means of Ndel and a TAT-cDNA of HIV-1 (Vives, E. et al., J. Biol. Chem. 272, (1997), 16010-16017) is inserted. […]
# E7/2 cells [2] = assay: Apoptosis of E7/2 cells (propidium iodide, FACscan); conditions: 10 µM - 200 µM penetratin-fused synthesized peptide, 1 hour to 72 hours
# Protocol: 24 hours after the transfection, the cells are fixed and stained using propidium iodide. The cells are analyzed in a FACscan by measuring the fluorescence caused by propidium iodide. Apoptotic nuclei are shown as nuclei having a DNA content of less than 2N. The amount of apoptotic nuclei is determined in comparison with normal nuclei.
# • (A) Peptide No. 732 is chemically synthesized with a leader attached to the NH2 end and supporting the incorporation into cells. It is penetratin and originates from Drosophila antennapedia. Thus, peptide No. 732 is available as fusion polypeptide and has the following sequence: [formula] Cells are used in which HPV16 E7 is expressed and whose growth depends thereon. Such cells are e.g. E7/2 cells. They are transfected with 10 µM - 200 µM of the synthesized peptide No. 732. Growth rate, apoptosis and cell cycle profiles of the cells are determined 1 hour to 72 hours after the transfection. The former is effected by determining the cell number. […] As to the latter test, the cell DNA is stained with propidium iodide and its content is determined in a FACscan. On the basis thereof, the cell cycle profile is assessed by means of the CellQuest program (Schulze, A. et al., Proc. Natl. Acad. Sci, U.S.A. 92, (1995), 11264-11268), the number of cells in the S phase being taken as a marker for the cell proliferation. […]
# E7/2 cells [3] = assay: Cell cycle profile of E7/2 cells (propidium iodide, FACscan, CellQuest); conditions: 10 µM - 200 µM penetratin-fused synthesized peptide, 1 hour to 72 hours, marker for cell proliferation
# Protocol: as §1
structure (smiles),measurement,setting,value
CC[C@H](C)[C@H](NC(=O)[C@H](CCCCN)NC(=O)[C@H](CCCCN)NC(=O)[C@H](Cc1c[nH]c2ccccc12)NC(=O)[C@H](CCCCN)NC(=O)[C@H](CCSC)NC(=O)[C@H](CCCNC(=N)N)NC(=O)[C@H](CCCNC(=N)N)NC(=O)[C@H](CC(N)=O)NC(=O)[C@H](CCC(N)=O)NC(=O)[C@H](Cc1ccccc1)NC(=O)[C@H](Cc1c[nH]c2ccccc12)NC(=O)[C@@H](NC(=O)[C@H](CCCCN)NC(=O)[C@@H](NC(=O)[C@H](CCC(N)=O)NC(=O)[C@@H](N)CCCNC(=N)N)[C@@H](C)CC)[C@@H](C)CC)C(=O)N[C@@H](C)C(=O)N[C@@H](C)C(=O)N[C@@H](CCCNC(=N)N)C(=O)N[C@@H](CC(C)C)C(=O)N[C@@H](CCCNC(=N)N)C(=O)N[C@@H](CC(C)C)C(=O)N[C@@H](CCCNC(=N)N)C(=O)N[C@@H](CS)C(=O)NCC(=O)N[C@H](C(=O)N[C@H](C(=O)N[C@@H](CC(C)C)C(=O)N[C@@H](CC(C)C)C(=O)N[C@@H](CC(C)C)C(=O)N[C@@H](CS)C(=O)N[C@H](C(=O)N[C@@H](CC(C)C)C(=O)N[C@@H](CC(=O)O)C(=O)N[C@@H](CC(C)C)C(=O)O)[C@@H](C)O)[C@@H](C)CC)C(C)C [peptide No. 732] (H-RQIKIWFQNRRMKWKKIAARLRLRCGVILLLCTLDL-OH),growth rate,E7/2 cells [1],reduces the growth rate
same,apoptosis frequency,E7/2 cells [2],lowers the apoptosis frequency
same,number of cells in the S phase,E7/2 cells [3],reduces the number of cells in the S phase
